Type in all cases: in vivo
The subject of assay [1] is CYPDI (Cyperus difformis L., smallflower umbrella sedge). Briefly: Postemergence field trials in direct-seeded rice, Greece and Italy (Example IV). Particulars: foliar. On the procedure:
(§1) Multiple post-emergence field trials were conducted under field conditions in Tolima, Colombia; Thessaloniki, Greece; Ottobiano and Copiano, Italy; Greenville, Miss. and Eagle Lake, Tex., USA; and water-injected treatments were tested at Ryugasaki, Japan. Trial sites were located in commercially grown fields of direct-seeded rice (Oryza sativa) using standard herbicide small plot research methodology, except in Japan where transplanted rice was utilized for the field trial. Post-emergence trial plot size varied from 2 to 3 meter (m)×5 to 8 m (width×length) with 4 replicates per treatment. Water-injected trial plot size was 2×2 m with 3 replicates per treatment. The rice crop was grown using normal cultural practices for fertilization, seeding, watering, flooding and maintenance to ensure good growth of the crop and the weeds.
(§2) All treatments in the post-emergence field trials were applied using a backpack compressed air/gas sprayer with flat fan nozzles (80° or 110°) calibrated to apply 187 to 300 L/ha spray volume at approximately 200-400 kPa nozzle pressure. In Japan, treatments were water-injected applied where the specified amount of commercial product was mixed in 100 mls of water per replicate and applied directly into 3 cm deep water containing the crop and weeds. Treatments consisted of the benzyl ester of 4-amino-3-chloro-5-fluoro-6-(4-chloro-2-fluoro-3-methoxy-phenyl)pyridine-2-carboxylic acid (Compound A), formulated as an SC (suspension concentrate), and various herbicidal components alone and in combination.
(§3) Commercially available products of penoxsulam (Viper 20OD® (Europe), Grasp 240SC® (USA), and Wideattack 37.5SC® (Japan)) were mixed in water at appropriate formulated product rates to achieve the desired rates based on a unit area of application (hectare) to achieve the desired rates as shown. Treatments were rated at 15 to 56 days after application (DAA) as compared to the untreated control plants. Visual weed control was scored on a scale of 0 to 100 percent where 0 corresponds to no injury and 100 corresponds to complete kill.
(§4) All treatment results, both for the single product and mixtures, are an average of 3 to 4 replicates. The trial sites had naturally occurring populations of weeds. The weed spectrum included, but was not limited to, broadleaf signalgrass (Brachiaria platyphylla (Griseb.) Nash or Urochloa platyphylla (Nash) R.D. Webster, BRAPP), smallflower umbrellaplant (Cyperus difformis L., CYPDI), yellow nutsedge (Cyperus esculentus L., CYPES), multiple Echinochloa species in the same field (ECHSS) in Italy (mixed ECHSS biotypes), Amazon sprangletop (Leptochloa panicoides (J. Presl) A.S. Hitchc., LEFPA), and Japanese bulrush (Schoenoplectus juncoides (Roxb.) Palla, SCPJU).

The next assay relates to ECHSS (Echinochloa spp.). Described as above. Particulars: foliar. On the procedure:
as §1, §2, §3, §4

Assay [2] deals with BRAPP (Brachiaria platyphylla (Griseb.) Nash, broadleaf signalgrass). Briefly: Postemergence foliar-applied herbicidal mixtures, direct seeded rice, greenhouse (Example I).
For assay [3], the system named is LEFCH (Leptochloa chinensis (L.) Nees, Chinese sprangletop). Described as above.
Assay [4] concerns ISCRU (Ischaemum rugosum Salisb., saramollagrass). Described as above.
Assay [5] relates to BRAPP (Brachiaria platyphylla (Griseb.) Nash, broadleaf signalgrass). Nature of the assay: Postemergence field trials in direct-seeded rice, United States (Example IV). The conditions noted are these: foliar. The protocol: as §1, §2, §3, §4
Assay [6] has as its system LEFPA (Leptochloa panicoides(Presl.) Hitchc., Amazon sprangletop). The assay is described as above. The conditions noted are these: foliar. The protocol: as §1, §2, §3, §4
[7] abbreviates: Compound A Benzyl Ester 24 gae/ha.
Setting [8] is: Compound A Benzyl Ester 8 gae/ha.
Where [9] appears, read: Compound A Benzyl Ester 16 gae/ha.
Where [10] appears, read: Compound A Benzyl Ester 17.5 gae/ha.
[11] abbreviates: Compound A Benzyl Ester 32 gae/ha.

On to `COc1c(Cl)ccc(-c2nc(C(=O)OCc3ccccc3)c(Cl)c(N)c2F)c1F` [Compound A Benzyl Ester, benzyl ester of 4-amino-3-chloro-5-fluoro-6-(4-chloro-2-fluoro-3-methoxy-phenyl)pyridine-2-carboxylic acid], for which, in assay [1] (setting [7]), the “Visual Weed Control (%) - 54-56 DAA CYPDI Obs” value came out at 81%. For the same compound, the “Visual Weed Control (%) - 54-56 DAA ECHSS Obs” value in the assay on ECHSS (Echinochloa spp.) (setting [7]) stood at 40%. Moreover, the “Visual Weed Control (%) - 22 DAA BRAPP Obs” value in assay [2] (setting [8]) worked out at 60%; in assay [2] (setting [9]) it was 60%; in assay [2] (setting [11]), 90%. In addition, the “Visual Weed Control (%) - 21 DAA BRAPP Obs” value in assay [2] (setting [10]) is 80%. The “Visual Weed Control (%) - 20 DAA LEFCH Obs” value in assay [3] (Compound A Benzyl Ester 4.38 gae/ha) worked out at 10%; in assay [3] (Compound A Benzyl Ester 8.75 gae/ha), 20%; in assay [3] (setting [10]), 60%. Moreover, the “Visual Weed Control (%) - 22 DAA LEFCH Obs” value came out at 10% in assay [3] (setting [8]), 25% in assay [3] (setting [9]) and 55% in assay [3] (setting [11]). Further, the “Visual Weed Control (%) - 21 DAA ISCRU Obs” value is given as 20% in assay [4] (setting [8]) and 0% in assay [4] (setting [9]). For the same compound, in assay [5] (setting [11]), the “Visual Weed Control (%) - 15-19 DAA BRAPP Obs” value worked out at 62%. Also, the “Visual Weed Control (%) - 15-19 DAA LEFPA Obs” value in assay [6] (setting [7]) stood at 53%.

For `COc1cnc(OC)n2nc(NS(=O)(=O)c3c(OCC(F)F)cccc3C(F)(F)F)nc12` [Penoxsulam, 2-(2,2-difluoroethoxy)-N-(5,8-dimethoxy[1,2,4]triazolo[1,5-c]pyrimidin-2-yl)-6-(trifluoromethyl)benzenesulfonamide, reference compound], in assay [1] (Penoxsulam 40 gai/ha), the “Visual Weed Control (%) - 54-56 DAA CYPDI Obs” value stood at 0%. In the assay on ECHSS (Echinochloa spp.) (Penoxsulam 40 gai/ha), the “Visual Weed Control (%) - 54-56 DAA ECHSS Obs” value worked out at 50%. In addition, the “Visual Weed Control (%) - 21 DAA BRAPP Obs” value is recorded as 0% in assay [2] (Penoxsulam 4.38 gai/ha, Table 2); 0% in assay [2] (Penoxsulam 4.38 gai/ha, Table 3); 20% in assay [2] (Penoxsulam 8.75 gai/ha, Table 2); 20% in assay [2] (Penoxsulam 8.75 gai/ha, Table 3); 40% in assay [2] (Penoxsulam 17.5 gai/ha, Table 3). Further, the “Visual Weed Control (%) - 19 DAA LEFCH Obs” value in assay [3] (Penoxsulam 40 gai/ha) was 0%. Also, the “Visual Weed Control (%) - 21 DAA ISCRU Obs” value in assay [4] (Penoxsulam 10 gai/ha) and in assay [4] (Penoxsulam 20 gai/ha) was 0% throughout. Besides, the “Visual Weed Control (%) - 15-19 DAA BRAPP Obs” value in assay [5] (Penoxsulam 40 gai/ha) turned out to be 35%. Moreover, the “Visual Weed Control (%) - 15-19 DAA LEFPA Obs” value in assay [6] (Penoxsulam 40 gai/ha) turned out to be 16%.

The record behind these values is patent publication US8906825B2, “Herbicidal compositions comprising 4-amino-3-chloro-5-fluoro-6-(4-chloro-2-fluoro-3-methoxyphenyl) pyridine-2-carboxylic acid or a derivative thereof and triazolopyrimidine sulfonamides” (Dow AgroSciences LLC, priority 2012, dated 2014).
